Results from the OPERA property sets (Mansouri et al. 2018).
≈ marks a conversion by molar mass, not a printed value.

SMILES | logP | other results
FC(F)C(F)(F)OCC(Cn1cncn1)c1ccc(Cl)cc1Cl (stereo unspecified) | 3.56 | 
C#CCOc1cc(-n2nc3n(c2=O)CCCC3)c(Cl)cc1Cl |  | solubility (pH 7.0): 47.3 µM (≈ 16 µg/mL)
CCCSC(=O)N(CCC)CCC | 3.84 | solubility (20 °C): 443 µM (≈ 90 µg/mL)
CCOc1nc(NC)nc(NC(=O)NS(=O)(=O)c2ccccc2C(=O)OC)n1 |  | logD (pH 5.0): 1.59; solubility (pH 5.0, 25 °C): 4.14 µM (≈ 1.7 µg/mL)
O=C([O-])C(F)(F)C(F)F.[Na+] | 1.32 | solubility (20 °C): 131000 µM
Clc1ccc(CSC(Cn2cncn2)=Nc2ccc(Cl)cc2Cl)cc1 | 4.94 | 
OC(c1ccc(Cl)cc1)(c1ccc(Cl)cc1)C(Cl)(Cl)Cl |  | solubility (25 °C): 2.77 µM (≈ 1.03 µg/mL)
CCN(CC)C(=O)C(Cl)=C(C)OP(=O)(OC)OC | 0.79 | 
CC(C)N(Cc1ccccc1)C(=O)C(C)(C)C | 3 | solubility (pH 7.0, 20 °C): 3390 µM (≈ 790 µg/mL)
O=C(Nc1ccc(Cl)cc1C(O)c1ccccc1)c1ccncc1 (stereo unspecified) | 3.13 | 
CCN(CC)c1nc(C)cc(OP(=S)(OC)OC)n1 |  | solubility (pH 7.3, 20 °C): 45.5 µM (≈ 13.9 µg/mL)
O=C(NC(=O)c1c(F)cccc1F)Nc1cc(Cl)c(OC(F)(F)C(F)F)c(Cl)c1 | 5.68 | 
C=C(C)CN(CC)c1c([N+](=O)[O-])cc(C(F)(F)F)cc1[N+](=O)[O-] |  | solubility (pH 7.0, 25 °C): 0.735 µM (≈ 0.245 µg/mL)
Cc1c(F)c(F)c(COC(=O)C2C(/C=C(\Cl)C(F)(F)F)C2(C)C)c(F)c1F (stereo unspecified) | 6.5 | 
COP(=O)(OC)SCn1c(=O)oc2cc(Cl)cnc21 | 1.05 | 
CC[C@H]1O[C@]2(CC[C@@H]1C)C[C@@H]1C[C@@H](CC=C(C)C[C@@H](C)C=CC=C3CO[C@@H]4[C@H](O)C(C)=C[C@@H](C(=O)O1)[C@]34O)O2 | 5.9 | solubility (20 °C): 13.3 µM (≈ 7.2 µg/mL)
C=C/C=C\CC1=C(C)[C@@H](OC(=O)[C@@H]2[C@@H](C=C(C)C)C2(C)C)CC1=O | 5.9 | 
CC(C)C1(C)N=C(c2nc3ccccc3cc2C(=O)O)NC1=O (stereo unspecified) |  | solubility (25 °C): 289 µM (≈ 90 µg/mL)
O=C(O)c1c(Cl)c(Cl)c(Cl)c(Cl)c1C(O)=Nc1cccc(Cl)c1Cl |  | solubility (26 °C): 31.3 µM (≈ 14 µg/mL)
CC(C)NC(=O)N1CC(=O)N(c2cc(Cl)cc(Cl)c2)C1=O | 3 | 
CCSCc1ccccc1OC(=O)NC | 2.04 | 
CC(C)(SC(=O)N1CCCCC1)c1ccccc1 | 4.02 | solubility (25 °C): 75.9 µM (≈ 20 µg/mL)
CCOP(=O)(SC(C)CC)N1CCSC1=O (stereo unspecified) | 1.68 | 
CC1=NNC(=O)N(/N=C/c2cccnc2)C1 | -0.18 | solubility (25 °C): 1340 µM (≈ 290 µg/mL)
COC(=O)c1c(Cl)nn(C)c1S(=O)(=O)NC(=O)Nc1nc(OC)cc(OC)n1 |  | solubility (pH 5.0, 20 °C): 34.3 µM (≈ 14.9 µg/mL); logD (pH 7.0): -0.02
CCOc1ccc(C(C)(C)COCc2cccc(Oc3ccccc3)c2)cc1 |  | solubility (25 °C): < 0.00266 µM
C=CCC1=C(C)C(OC(=O)C2C(C=C(C)C)C2(C)C)CC1=O (stereo unspecified) |  | solubility (25 °C): 15.2 µM (≈ 4.6 µg/mL)
Cc1cc(C2CC2)nc(Nc2ccccc2)n1 | 4 | 

SMILES | logP | other results
CC1(C)CCC(Cc2ccc(Cl)cc2)C1(O)Cn1cncn1 (stereo unspecified) | 3.85 | 
CCOC(=O)CSc1nc(C(C)(C)C)nn1C(=O)N(C)C | 2.69 | solubility (pH 7.0, 25 °C): 1380 µM (≈ 433 µg/mL)
CC(C)(C)N(NC(=O)c1ccc(Cl)cc1)C(=O)c1ccccc1 | 3.22 | solubility: 36.3 µM (≈ 12 µg/mL)
CCN(Cc1c(F)cccc1Cl)c1c([N+](=O)[O-])cc(C(F)(F)F)cc1[N+](=O)[O-] | 5.45 | 
Clc1cccc(C(Cl)(Cl)Cl)n1 |  | solubility (25 °C): 233 µM (≈ 53.7 µg/mL)
CCOCCOC(=O)C(C)Oc1ccc(Oc2ncc(C(F)(F)F)cc2Cl)cc1 (stereo unspecified) |  | solubility (20 °C): 1.34 µM (≈ 0.58 µg/mL)
CC(C)(C)C(O)(CCc1ccc(Cl)cc1)Cn1cncn1 (stereo unspecified) | 3.7 | 
CC(C)(C)[C@H](O)/C(=C\c1ccc(Cl)cc1)n1cncn1 |  | solubility (25 °C): 28.8 µM (≈ 8.41 µg/mL)
CCOCOc1ccc(C(=O)Nc2cccc(Cl)c2Cl)cc1 | 4.3 | solubility (25 °C): 2.7 µM (≈ 0.92 µg/mL)
C#CCN1CC(=O)N(COC(=O)[C@@H]2[C@@H](C=C(C)C)C2(C)C)C1=O | 2.9 | solubility (25 °C): 294 µM (≈ 93.5 µg/mL)
CS/C(C)=N/OC(=O)N(C)SN(C)C(=O)O/N=C(\C)SC |  | solubility (25 °C): 72.9 µM (≈ 25.8 µg/mL)
O=C(NC(=O)c1ccccc1Cl)Nc1ccc(OC(F)(F)F)cc1 | 4.91 | solubility (20 °C): 0.0697 µM (≈ 0.025 µg/mL)
CCSCCSP(=S)(OC)OC | 3.15 | 
CCCCOCCOCCOCc1cc2c(cc1CCC)OCO2 | 4.75 | solubility (25 °C): 42.2 µM (≈ 14.3 µg/mL)
CCc1nn(C)c(C(=O)NCc2ccc(C(C)(C)C)cc2)c1Cl | 4.61 | 
COc1ccc(-c2ccccc2)cc1NNC(=O)OC(C)C |  | solubility (20 °C): 12.5 µM (≈ 3.76 µg/mL)
FC(F)(F)C(=NOCC1OCCO1)c1ccc(Cl)cc1 | 2.9 | solubility (20 °C): 96.9 µM (≈ 30 µg/mL)
COc1nn(CSP(=S)(OC)OC)c(=O)s1 | 2.2 | 
CCOC(=O)c1cnn(C)c1S(=O)(=O)NC(=O)Nc1nc(OC)cc(OC)n1 | 1.3 | 
COc1cc(OC)nc(N=C(O)NS(=O)(=O)N(C)S(C)(=O)=O)n1 | 1.63 | 
CC1(C)[C@H](C=C(Cl)Cl)[C@H]1C(=O)OCc1c(F)c(F)cc(F)c1F |  | solubility (20 °C): 0.154 µM (≈ 0.057 µg/mL)
CCOP(=S)(Oc1cnc(C(C)(C)C)nc1)OC(C)C (stereo unspecified) |  | solubility (pH 7.0, 20 °C): 17.3 µM (≈ 5.5 µg/mL)
C#CC(OC(=O)C1C(C=C(C)C)C1(C)C)/C(C)=C/CC (stereo unspecified) |  | solubility (25 °C): 0.404 µM (≈ 0.111 µg/mL)
CCCCN(CC)c1c([N+](=O)[O-])cc(C(F)(F)F)cc1[N+](=O)[O-] | 5.29 | solubility (25 °C): 0.298 µM (≈ 0.1 µg/mL)
COc1cc(OC)nc(N=C(O)NS(=O)(=O)Nc2ccccc2C(=O)C2CC2)n1 | 2.05 | 
COc1cc(OC)nc(N=C(O)NS(=O)(=O)c2c(Cl)nc3ccccn23)n1 |  | solubility (pH 5.1, 25 °C): 16.3 µM (≈ 6.72 µg/mL)
Cc1cccc(C)c1N(Cn1cccn1)C(=O)CCl | 2.13 | 
